Test results taken from US20100310542A1, “Pharmaceutical Compositions for treating wouds and related methods” (HEALOR LTD., priority 2007, published 2010).

Tests used:
[1] = system: keratinocytes from the tails of adult mice; experiment: cell proliferation, Rapid Cell Proliferation Kit, pre-incubation in medium B; assay type: cell-based; settings: pre-incubation of cells in medium B for 24 hours vs treatment parallel to medium change
Method: Medium A and B are both EMEM eagle's minimal essential medium from Biological Industries (Israel) containing 8% CHELEX™ treated fetal bovine serum. CHELEX™ is a strong chelator which binds free Ca^2+ and Mg^2+ ions to prevent these ions from being bioavailable to the cultured cells. […] The influence of pre-incubation of keratinocytes in medium B on the effects of Insulin and Insulin+PKCα inhibitor on cell proliferation in vitro was evaluated. Cultures of 5 day old, confluent keratinocytes from the tails of adult mice (7-10 months up to 2 years) were allowed to proliferate in vitro. After 5 days in MEM (medium A), the growth medium was changed to medium B (described above). Parallel to the medium changing or 24 hours following it, cells were treated with Insulin or with Insulin+PKCα inhibitor. The proliferation rate of the cells was measured with the commercially available Rapid Cell Proliferation Kit (Cat. No. QIA127; Calbiochem). The Experiment was carried out in hexaplicate. Results are presented as percent of untreated cells (control). […] Cultures of 5 day old, confluent keratinocytes prepared from the tails of adult mice (7-10 months up to 2 years) were subjected to proliferation assays utilizing a commercially available Rapid Cell Proliferation Kit (Cat. No. QIA127; Calbiochem). After 5 days in MEM, the growth medium was changed to medium B as described above. […]

[2] = system: full thickness skin incisions; experiment: incision wound healing in mice, percent of healed wounds; assay type: in vivo, C57BL/6J mice; settings: agent alone, all formulations (A-C); daily, 7 days; vs groups treated with formulations alone
Method: In vivo incision wound generation and inducement of inflammation: Full thickness (20 mm long) skin incisions were performed on the upper back of anesthetized C57BL/6J mice (6 mice per group). […] the incision, wounds were treated daily with insulin (10^−6 M; 0.1 units/ml); pseudosubstrate PKCα peptide, 1 μM (PKCα inhibitor); or Insulin+PKCα inhibitor (Myr-pseudosubstrate PKCα peptide, 1 μM and insulin 0.1 units) applied directly on the wounds in the various formulations (Formulations A-C) as described above. After 7 days, wounds were excised and the percentage of healed wounds was evaluated by examining the morphology and histology of the wounds. Results are presented as percent of healed wounds relative to the total number of wounds per group. […] Full thickness (20 mm long) skin incisions were performed on the upper back of anesthetized C57BL/6J mice (6 mice per group). […] After 7 days, wounds were excised and the percentage of healed wounds was evaluated by examining the morphology and histology of the wounds. […]

[3] = system: primary murine keratinocytes; experiment: in vitro scratch assay, wound closure with insulin in Formulation C and D; assay type: cell-based; settings: insulin 0.1 units/ml, 48 hours
Method: Murine keratinocytes were isolated and cultured as described above. After five days, confluent keratinocytes were subjected in vitro scratch assays to follow wound healing. Following wound formation Insulin (insulin 10^−6 M; 0.1 units/ml) was added to the cell cultures in the various formulations (Formulation C and D) described above. Wound closure was followed for 48 hours. This experiment was carried out in triplicate. Wound closure is presented as the percent of closure following 48 hours of treatment in FIG. 6B.
Cultures of 5 day old, confluent keratinocytes were subjected to in vitro scratch assays and wound healing was examined. Following wound formation, Insulin (10^−6 M; 0.1 units/ml) was added to cell cultures in the various formulations (Formulation C and D) as described above. Wound closure was followed for 48 hours. Experiments were carried out in triplicate. (A) Photographs of representative cell culture dishes are presented. (B) Wound closure is presented as percent of closure following 48 hours of treatment. (C) Proliferation assays were performed on cultured cells in the wound using the thymidine incorporation proliferation assay described above.

[4] = system: primary murine keratinocytes; experiment: cell proliferation by [3H]thymidine incorporation; assay type: cell-based; settings: insulin 0.1 units/ml
Method: Cell proliferation: Cell proliferation was measured by [^3H]thymidine incorporation in 6 well plates. Cells were pulsed with [^3H]thymidine (3 μCi/ml) for 1 h. After incubation, cells were washed five times with PBS and 5% TCA was added into each well for 1 h. The solution was removed and cells were solubilized in 1 M NaOH. The labeled thymidine incorporated into cells was counted in a ^3H-window of TRI-CARB™ liquid scintillation counter.
Next, proliferation of cultured cells in the wound was evaluated utilizing thymidine incorporation (FIG. 6C). Cell proliferation was measured by [^3H]thymidine incorporation in 6 well plates. Cells were placed in […] and pulsed with [^3H]thymidine (3 μCi/ml) for 1 h. After incubation, cells were washed five times with PBS and 5% TCA was added to each well for 1 h. This solution was then removed and cells were solubilized in 1 M NaOH. The labeled thymidine incorporated into the cells was counted in the ^3H-window of a liquid scintillation counter. As shown in FIGS. 6A-C the addition of KCl changed insulin induced wound closure and cell proliferation.
Cultures of 5 day old, confluent keratinocytes were subjected to in vitro scratch assays and wound healing was examined. Following wound formation, Insulin (10^−6 M; 0.1 units/ml) was added to cell cultures in the various formulations (Formulation C and D) as described above. […]

[5] = Formulation D (Tris + KCl 0.4 mg/ml)

What does the source list for “Insulin: human recombinant insulin, identified as insulin, USP insulin or Ins USP”?
effect on cell proliferation (percent of untreated cells) [1]: enhances the effects; healing of wounds (percent of healed wounds) [2]: did not promote wound healing efficacy; wound closure in vitro ([3]; Formulation C (Tris)): inhibited insulin induced wound closure; wound closure in vitro [3, 5]: induced partial wound closure; cell proliferation (thymidine incorporation) ([4]; Formulation C (Tris)): inhibited insulin induced wound closure and cell proliferation; cell proliferation (thymidine incorporation) [4, 5]: induced partial wound closure and cell proliferation
